According to the NIST ThermoML archive (doi:10.1016/j.jct.2013.06.020):

Experiment: mn = molality of the nth substance listed, in mol/kg
Conditions: 298.15 K, 101 kPa, Liquid; for speed of sound: Sing-around technique in a fixed-path interferometer; for mass density: Vibrating tube method

O=Cc1ccco1 [2-furaldehyde] + O
Conditions	mass density [kg/m3]	speed of sound [m/s]
m1 = 0.0542	998.113	1499.1
m1 = 0.0556	998.137	1499.2
m1 = 0.0607	998.217	1499.4
m1 = 0.0653	998.295	1499.6
m1 = 0.0686	998.351	1499.7
m1 = 0.075	998.453	1500
m1 = 0.0801	998.537	1500.2
m1 = 0.089	998.69	1500.6
m1 = 0.1095	999.037	1501.4
m1 = 0.1179	999.174	1501.8
m1 = 0.1332	999.425	1502.3
m1 = 0.1717	1000.07	1504
m1 = 0.2053	1000.62	1505.3
m1 = 0.2309	1001.03	1506.1
m1 = 0.3092	1002.32	1508.9
m1 = 0.3436	1002.87	1510
m1 = 0.4132	1003.97	1512.3
m1 = 0.5112	1005.51	1515.2
m1 = 0.5559	1006.19	1516.5
m1 = 0.6557	1007.7	1518.7
m1 = 0.8368	1010.35	1522
m1 = 0.9225	1011.55	1523.5

OCc1ccco1 [2-hydroxymethylfuran] + O
Conditions	mass density [kg/m3]	speed of sound [m/s]
m1 = 0.0475	997.854	1498.9
m1 = 0.0537	997.937	1499.3
m1 = 0.0559	997.967	1499.4
m1 = 0.0625	998.054	1499.7
m1 = 0.0688	998.143	1500
m1 = 0.0781	998.269	1500.3
m1 = 0.0999	998.571	1501.3
m1 = 0.1027	998.607	1501.5
m1 = 0.12	998.847	1502.2
m1 = 0.1433	999.158	1503.3
m1 = 0.1651	999.552	1504.3
m1 = 0.2327	1000.39	1507.1
m1 = 0.2468	1000.58	1507.8
m1 = 0.4458	1003.25	1515.9
m1 = 0.618	1005.5	1522.3
m1 = 0.8613	1008.56	1530.4
m1 = 1.054	1010.95	1535.9
m1 = 1.236	1012.93	1540.5
m1 = 1.441	1015.25	1545.5
m1 = 1.656	1017.56	1550
m1 = 1.835	1019.32	1554
m1 = 2.062	1021.73	1559.4
m1 = 2.545	1026.13	1569.5
m1 = 2.874	1028.8	1577.2

OCC1CCCO1 (stereo not drawn) [2-tetrahydrofurylmethanol] + O
Conditions	mass density [kg/m3]	speed of sound [m/s]
m1 = 0.0115	997.245	1497.2
m1 = 0.0127	997.265	1497.4
m1 = 0.0141	997.289	1497.6
m1 = 0.0149	997.301	1497.7
m1 = 0.0183	997.356	1498.1
m1 = 0.0193	997.373	1498.2
m1 = 0.0223	997.421	1498.4
m1 = 0.0281	997.511	1498.5
m1 = 0.0286	997.518	1498.5
m1 = 0.0337	997.596	1498.7
m1 = 0.0441	997.835	1499.3
m1 = 0.0462	997.862	1499.5
m1 = 0.0496	997.893	1499.6
m1 = 0.0584	998.028	1500.3
m1 = 0.0686	998.155	1500.9
m1 = 0.0731	998.209	1501.1
m1 = 0.0948	998.467	1502.4
m1 = 0.1082	998.66	1503.2
m1 = 0.1478	999.071	1505.6
m1 = 0.2077	999.663	1509
m1 = 0.2552	1000.11	1511.8
m1 = 0.35	1000.98	1517.1
m1 = 0.4904	1002.2	1524.9
m1 = 0.678	1003.77	1534.7
m1 = 1.16	1007.55	1557.2
m1 = 1.996	1013.36	1589.1
m1 = 2.959	1020.27	1614.9
m1 = 3.175	1021.74	1620.8
m1 = 3.559	1024.37	1630.1
m1 = 5.556	1036.45	1672.3

Cc1ccc(C=O)o1 [5-methylfurfural] + O
Conditions	mass density [kg/m3]	speed of sound [m/s]
m1 = 0.0067	997.297	1497
m1 = 0.0069	997.3	1497
m1 = 0.0081	997.319	1497.1
m1 = 0.0083	997.323	1497.2
m1 = 0.0084	997.325	1497.2
m1 = 0.0098	997.344	1497.2
m1 = 0.0103	997.35	1497.2
m1 = 0.0109	997.355	1497.3
m1 = 0.0122	997.373	1497.3
m1 = 0.0137	997.397	1497.4
m1 = 0.016	997.425	1497.6
m1 = 0.0179	997.454	1497.7
m1 = 0.0223	997.516	1497.9
m1 = 0.0257	997.563	1498.1
m1 = 0.0292	997.613	1498.3
m1 = 0.0462	997.848	1499.2
m1 = 0.0557	997.966	1499.6
m1 = 0.0608	998.055	1500
m1 = 0.0825	998.35	1501.1
m1 = 0.1136	998.767	1503
m1 = 0.1363	998.986	1503.8
m1 = 0.1454	999.221	1504.2
m1 = 0.1666	999.516	1505.2
m1 = 0.204	1000.01	1506.9
m1 = 0.2877	1001.14	1511

CCOC(=O)C(C)O (stereo not drawn) [DL-ethyl lactate] + O
Conditions	mass density [kg/m3]	speed of sound [m/s]
m1 = 0.0348	997.552	1498.7
m1 = 0.0378	997.579	1499
m1 = 0.0445	997.674	1499.6
m1 = 0.0513	997.748	1500
m1 = 0.063	997.869	1500.5
m1 = 0.0719	997.967	1501.1
m1 = 0.0895	998.152	1502.2
m1 = 0.1026	998.294	1503
m1 = 0.1207	998.489	1504
m1 = 0.1439	998.732	1505.6
m1 = 0.1856	999.184	1508.6
m1 = 0.2723	1000.1	1514
m1 = 0.5249	1002.7	1526
m1 = 0.6911	1004.35	1533.5
m1 = 0.8467	1005.83	1539.6
m1 = 1.02	1007.41	1545.3
m1 = 1.188	1008.87	1551.3
m1 = 1.359	1010.23	1556.1
m1 = 1.683	1012.78	1563.9
m1 = 2.058	1015.37	1572.5
m1 = 2.41	1017.49	1579
m1 = 2.725	1019.27	1585.2
m1 = 3.226	1021.64	1593.3
m1 = 3.731	1023.63	1601.1
m1 = 4.237	1025.37	1607.5

CCCCOC(=O)C(C)O (stereo not drawn) [butyl 2-hydroxypropanoate] + O
Conditions	mass density [kg/m3]	speed of sound [m/s]
m1 = 0.0219	997.335	1498.8
m1 = 0.0262	997.377	1499.4
m1 = 0.0328	997.422	1499.9
m1 = 0.0399	997.472	1500.3
m1 = 0.0413	997.482	1500.5
m1 = 0.0444	997.503	1500.8
m1 = 0.0632	997.633	1502.3
m1 = 0.0659	997.652	1502.6
m1 = 0.0775	997.733	1503.7
m1 = 0.0915	997.826	1504.9
m1 = 0.1058	997.928	1506.1
m1 = 0.1167	998.001	1507
m1 = 0.1331	998.116	1508.4
m1 = 0.1551	998.265	1510.2
m1 = 0.1798	998.437	1512.2
m1 = 0.1979	998.576	1514
m1 = 0.2171	998.689	1515.5
m1 = 0.235	998.813	1516.7
m1 = 0.2647	999.004	1518.4
m1 = 0.2785	999.098	1519.4

CCCCOC(=O)CCC(C)=O [butyl levulinate] + O
Conditions	mass density [kg/m3]	speed of sound [m/s]
m1 = 0.0029	997.066	1497.3
m1 = 0.0037	997.071	1497.5
m1 = 0.005	997.078	1497.6
m1 = 0.0055	997.08	1497.6
m1 = 0.0059	997.081	1497.7
m1 = 0.0074	997.088	1497.9
m1 = 0.0083	997.093	1497.9
m1 = 0.0088	997.096	1497.9
m1 = 0.011	997.107	1498.2
m1 = 0.0128	997.114	1498.4
m1 = 0.0135	997.123	1498.5
m1 = 0.0142	997.124	1498.5
m1 = 0.0208	997.158	1499.1
m1 = 0.0219	997.163	1499.4
m1 = 0.0257	997.183	1499.7
m1 = 0.0303	997.197	1500
m1 = 0.0312	997.209	1500.1
m1 = 0.0357	997.23	1500.6
m1 = 0.0466	997.273	1501.4
m1 = 0.0522	997.303	1501.8
m1 = 0.0625	997.333	1502.5

CCOC(=O)CCC(C)=O [ethyl levulinate] + O
Conditions	mass density [kg/m3]	speed of sound [m/s]
m1 = 0.0358	997.518	1499.2
m1 = 0.0404	997.561	1499.6
m1 = 0.0431	997.587	1499.8
m1 = 0.0492	997.643	1500.2
m1 = 0.0555	997.699	1500.7
m1 = 0.0696	997.825	1501.6
m1 = 0.0752	997.876	1502
m1 = 0.0921	998.027	1503.1
m1 = 0.1048	998.143	1504
m1 = 0.148	998.527	1507.1
m1 = 0.2329	999.277	1512.1
m1 = 0.2893	999.76	1515.5
m1 = 0.3426	1000.21	1518.5
m1 = 0.4292	1000.93	1523.1
m1 = 0.4826	1001.36	1525.7
m1 = 0.5834	1002.14	1530.3
m1 = 0.7128	1003.11	1535.5
m1 = 0.8299	1003.94	1539.5
m1 = 1.037	1005.27	1545

COC(=O)C(C)O (stereo not drawn) [methyl 2-hydroxypropanoate] + O
Conditions	mass density [kg/m3]	speed of sound [m/s]
m1 = 0.0487	997.862	1499
m1 = 0.0568	997.968	1499.5
m1 = 0.0707	998.157	1500.4
m1 = 0.0956	998.501	1501.2
m1 = 0.1039	998.614	1501.6
m1 = 0.1117	998.722	1502
m1 = 0.1338	999.035	1503.1
m1 = 0.1539	999.294	1504
m1 = 0.223	1000.24	1507.8
m1 = 0.3212	1001.55	1511.7
m1 = 0.484	1003.64	1518.2
m1 = 0.7855	1007.52	1529
m1 = 0.9699	1009.78	1535.3
m1 = 1.168	1012.12	1542.1
m1 = 1.377	1014.5	1548.7
m1 = 1.56	1016.48	1554.2
m1 = 1.776	1018.7	1561.9
m1 = 1.938	1020.4	1566.9
m1 = 2.237	1023.27	1575.8
m1 = 2.632	1026.82	1588.2
m1 = 2.941	1029.45	1597
m1 = 3.322	1032.46	1606.5
m1 = 3.906	1036.62	1617.2
